# Assay results taken from patent US7618961B2, “Inhibitors of 11-beta-hydroxy steroid dehydrogenase type 1” (Biovitrum AB, priority 2000, dated 2009).
# Where a name gives a salt, the structure may show the parent alone.
row,Structure (SMILES),melting point [°C]
1,"O=C(O)Cc1csc(NS(=O)(=O)c2cc(Cl)sc2Cl)n1 (as salt: salt) [Example 85A, 2-(2-{[(2,5-Dichloro-3-thienyl)sulfonyl]amino}-1,3-thiazol-4-yl)acetic acid]",174
2,"Cc1c(Cl)cccc1S(=O)(=O)Nc1nc(CC(=O)O)cs1 (as salt: salt) [Example 87A, 2-(2-{[(3-Chloro-2-methylphenyl)sulfonyl]amino}-1,3-thiazol-4-yl)acetic acid]",198
3,"CCOC(=O)Cc1csc(NS(=O)(=O)c2ccc(C)cc2)n1 [Example 5A, Ethyl 2-(2-(((4-methylphenyl)sulfonyl)amino)-1,3-thiazol-4-yl)acetate]",173
4,"CCOC(=O)Cc1csc(NS(=O)(=O)c2cccc(Cl)c2C)n1 [Example 8A, Ethyl 2-(2-{[(3-chloro-2-methylphenyl)sulfonyl]amino}-1,3-thiazol-4-yl)acetate]",154
5,"CCOC(=O)Cc1csc(NS(=O)(=O)c2ccc(-c3ccccc3)cc2)n1 [Example 10A, Ethyl 2-{2-[([1,1′-biphenyl]-4-ylsulfonyl)amino]-1,3-thiazol-4-yl}acetate]",182
6,"CCOC(=O)Cc1csc(NS(=O)(=O)c2cccc(Br)c2)n1 [Example 12A, Ethyl 2-(2-{[(3-bromophenyl)sulfonyl]amino}-1,3-thiazol-4-yl)acetate]",155
7,"CCOC(=O)Cc1csc(NS(=O)(=O)c2ccccc2C(F)(F)F)n1 [Example 25A, Ethyl [2-({[2-(trifluoromethyl)phenyl]sulfonyl}amino)-1,3-thiazol-4-yl]acetate]",171
8,"CCOC(=O)Cc1csc(NS(=O)(=O)c2cccc(C(F)(F)F)c2)n1 [Example 26A, Ethyl [2-({[3-(trifluoromethyl)phenyl]sulfonyl}amino)-1,3-thiazol-4-yl]acetate]",145
9,"CCOC(=O)Cc1csc(NS(=O)(=O)c2ccc(C(F)(F)F)cc2)n1 [Example 27A, Ethyl [2-({[4-(trifluoromethyl)phenyl]sulfonyl}amino)-1,3-thiazol-4-yl]acetate]",174
10,"CCOC(=O)Cc1csc(NS(=O)(=O)c2ccc(Br)cc2)n1 [Example 28A, Ethyl 2-(2-{[(4-bromophenyl)sulfonyl]amino}-1,3-thiazol-4-yl)acetate]",183
11,"CCOC(=O)Cc1csc(NS(=O)(=O)c2cc(Cl)ccc2Cl)n1 [Example 77A, Ethyl (2-{[(2,5-dichlorophenyl)sulfonyl]amino}-1,3-thiazol-4-yl)acetate]",171
12,"Cc1ccc(S(=O)(=O)Nc2nc(CC(=O)O)cs2)cc1 [Example 84A, 2-(2-{[(4-Methylphenyl)sulfonyl]amino}-1,3-thiazol-4-yl)acetic acid]",187
13,"O=C(O)Cc1csc(NS(=O)(=O)c2ccccc2Cl)n1 [Example 86A, (2-{[(2-Chlorophenyl)sulfonyl]amino}-1,3-thiazol-4-yl)acetic acid]",176
14,"Cc1c(Cl)cccc1S(=O)(=O)Nc1nc(CC(=O)Oc2ccccc2)cs1 [Example 89A, Phenyl 2-(2-{[(3-chloro-2-methylphenyl)sulfonyl]amino}-1,3-thiazol-4-yl)acetate]",189
15,"COC(=O)Cc1csc(NS(=O)(=O)c2cccc(Cl)c2C)n1 [Example 90A, Methyl (2-{[(3-chloro-2-methylphenyl)sulfonyl]amino}-1,3-thiazol-4-yl)acetate]",187
16,"CNC(=O)Cc1csc(NS(=O)(=O)c2cc(Cl)sc2Cl)n1 [Example 99A, 2-(2-{[(2,5-Dichloro-3-thienyl)sulfonyl]amino}-1,3-thiazol-4-yl)-N-methylacetamide]",183
17,"CCNC(=O)Cc1csc(NS(=O)(=O)c2ccc(F)cc2F)n1 [Example 102A, 2-(2-{[(2,4-Difluorophenyl)sulfonyl]amino}-1,3-thiazol-4-yl)-N-ethylacetamide]",150
18,"CNC(=O)Cc1csc(NS(=O)(=O)c2cccc(Cl)c2C)n1 [Example 106A, 2-(2-{[(3-Chloro-2-methylphenyl)sulfonyl]amino}-1,3-thiazol-4-yl)-N-methylacetamide]",165
19,"CCNC(=O)Cc1csc(NS(=O)(=O)c2cccc(Cl)c2C)n1 [Example 107A, 2-(2-{[(3-Chloro-2-methylphenyl)sulfonyl]amino}-1,3-thiazol-4-yl)-N-ethylacetamide]",96
20,"Cc1c(Cl)cccc1S(=O)(=O)Nc1nc(CC(=O)Nc2ccccc2)cs1 [Example 108A, 2-(2-{[(3-Chloro-2-methylphenyl)sulfonyl]amino}-1,3-thiazol-4-yl)-N-phenylacetamide]",202
21,"Cc1c(Cl)cccc1S(=O)(=O)Nc1nc(CC(=O)NC(c2ccccc2)c2ccccc2)cs1 [Example 113A, N-Benzhydryl-2-(2-{[(3-chloro-2-methylphenyl)sulfonyl]amino}-1,3-thiazol-4-yl)acetamide]",200
22,"Cc1c(Cl)cccc1S(=O)(=O)Nc1nc(CC(=O)N(C)C)cs1 [Example 131A, 2-(2-{[(3-Chloro-2-methylphenyl)sulfonyl]amino}-1,3-thiazol-4-yl)-N,N-dimethylacetamide]",84
23,"Cc1c(Cl)cccc1S(=O)(=O)Nc1nc(CC(=O)N2CCCC2)cs1 [Example 142A, 3-Chloro-2-methyl-N-{4-[2-oxo-2-(1-pyrrolidinyl)ethyl]-1,3-thiazol-2-yl}benzenesulfonamide]",107
24,"Cc1c(Cl)cccc1S(=O)(=O)Nc1nc(CC(=O)N2CCOCC2)cs1 [Example 148A, 3-Chloro-2-methyl-N-{4-[2-(4-morpholinyl)-2-oxoethyl]-1,3-thiazol-2-yl}benzenesulfonamide]",208 to 209
25,"Cc1cc(Cl)cc(Cl)c1S(=O)(=O)Nc1nc(CC(=O)N2CCOCC2)c(C)s1 [Example 159A, 2,4-Dichloro-6-methyl-N-{5-methyl-4-[2-(4-morpholinyl)2-oxoethyl]-1,3-thiazol-2-yl}benzenesulfonamide]",186 to 187
26,"Cc1sc(NS(=O)(=O)c2ccc(-c3ccccc3)cc2)nc1CC(=O)N1CCOCC1 [Example 160A, N-{5-methyl-4-[2-(4-morpholinyl)-2-oxoethyl]-1,3-thiazol-2-yl}[1,1′-biphenyl]-4-sulfonamide]",204 to 206
27,"Cc1sc(NS(=O)(=O)c2c(Cl)cc(Cl)cc2Cl)nc1CC(=O)N1CCOCC1 [Example 161A, 2,4,6-trichloro-N-{5-methyl-4-[2-(4-morpholinyl)-2-oxoethyl]-1,3-thiazol-2-yl}benzenesulfonamide]",216 to 217
28,"Cc1sc(NS(=O)(=O)c2cccc(Cl)c2C)nc1CC(=O)N1CCOCC1 [Example 162A, 3-chloro-2-methyl-N-{5-methyl-4-[2-(4-morpholinyl)-2-oxoethyl]-1,3-thiazol-2-yl}benzenesulfonamide]",194 to 195
29,"Cc1c(Cl)cccc1S(=O)(=O)Nc1nc(CC(=O)N2CCSCC2)cs1 [Example 165A, 3-Chloro-2-methyl-N-{4-[2-oxo-2-(4-thiomorpholinyl)ethyl]-1,3-thiazol-2-yl}benzenesulfonamide]",103 to 106
